According to PubChem BioAssay AID256 (DTP/NCI, 2004):
Toxic doses and inconclusive results are not listed. The calls were made as follows: active = survival T/C of 150% or more; inactive = T/C below 125% in these data.

System: CD2F1 mice, L1210 leukemia ip, survival T/C
Test: NCI In Vivo Anticancer Drug Screen. Data for tumor model L1210 Leukemia (intraperitoneal) in CD2F1 (CDF1) mice
Details: higher = longer survival
Outline: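 In this screen, transplantable tumors were grown in mice given either the compound or its vehicle. Results were expressed as the treated measurement relative to the control measurement.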

[1] = endpoint: mean survival time, dose: 100.0 mg/kg/injection, schedule: Q04DX002 (ip), vehicle: saline with Tween-80
[2] = endpoint: mean survival time, dose: 200.0 mg/kg/injection, schedule: Q04DX002 (ip), vehicle: saline with Tween-80
[3] = endpoint: mean survival time, dose: 400.0 mg/kg/injection, schedule: Q04DX002 (ip), vehicle: saline with Tween-80
[4] = endpoint: mean survival time, dose: 100.0 mg/kg/injection, schedule: Q01DX009 (ip), vehicle: saline with Tween-80
[5] = endpoint: mean survival time, dose: 100.0 mg/kg/injection, schedule: Q04DX003 (ip), vehicle: saline with Tween-80
[6] = endpoint: mean survival time, dose: 200.0 mg/kg/injection, schedule: Q01DX009 (ip), vehicle: saline with Tween-80
[7] = endpoint: mean survival time, dose: 200.0 mg/kg/injection, schedule: Q04DX003 (ip), vehicle: saline with Tween-80
[8] = endpoint: mean survival time, dose: 400.0 mg/kg/injection, schedule: Q04DX003 (ip), vehicle: saline with Tween-80
[9] = endpoint: mean survival time, dose: 100.0 mg/kg/injection, schedule: Q04DX003 (ip), vehicle: saline
[10] = endpoint: mean survival time, dose: 200.0 mg/kg/injection, schedule: Q04DX003 (ip), vehicle: saline
[11] = endpoint: mean survival time, dose: 400.0 mg/kg/injection, schedule: Q04DX003 (ip), vehicle: saline
[12] = endpoint: mean survival time, dose: 50.0 mg/kg/injection, schedule: Q01DX009 (ip), vehicle: Klucel (hydroxypropylcellulose) (HPC)
[13] = endpoint: mean survival time, dose: 100.0 mg/kg/injection, schedule: Q01DX009 (ip), vehicle: Klucel (hydroxypropylcellulose) (HPC)
[14] = endpoint: mean survival time, dose: 200.0 mg/kg/injection, schedule: Q01DX009 (ip), vehicle: Klucel (hydroxypropylcellulose) (HPC)
[15] = endpoint: mean survival time, dose: 400.0 mg/kg/injection, schedule: Q01DX009 (ip), vehicle: saline with Tween-80

Measured: T/C

[N-]=[N+]=NCC(=O)N1c2ccccc2Sc2ccccc21
inactive: endpoint: mean survival time, dose: 12.5 mg/kg/injection, schedule: Q01DX009 (ip), vehicle: other 95 % of control | endpoint: mean survival time, dose: 25.0 mg/kg/injection, schedule: Q01DX009 (ip), vehicle: other 103 % of control | endpoint: mean survival time, dose: 50.0 mg/kg/injection, schedule: Q01DX009 (ip), vehicle: other 98 % of control | endpoint: mean survival time, dose: 100.0 mg/kg/injection, schedule: Q01DX009 (ip), vehicle: other 101 % of control | endpoint: mean survival time, dose: 200.0 mg/kg/injection, schedule: Q01DX009 (ip), vehicle: other 95 % of control

CCOC(=O)c1c(C)c2c(n1C)CCCC2=O
inactive: [1] 93 % of control | [2] 89 % of control | [3] 86 % of control

CCCn1c(O)c(C=N)c(=O)[nH]c1=O
inactive: [4] 101 % of control | [5] 91 % of control | [6] 111 % of control | [7] 92 % of control | [8] 94 % of control

O=C(Nc1ccccc1F)c1cccc(Cl)c1
inactive: endpoint: mean survival time, dose: 100.0 mg/kg/injection, schedule: Q01DX009 (ip), vehicle: saline + alcohol 94 % of control | endpoint: mean survival time, dose: 100.0 mg/kg/injection, schedule: Q04DX003 (ip), vehicle: saline + alcohol 95 % of control | endpoint: mean survival time, dose: 200.0 mg/kg/injection, schedule: Q01DX009 (ip), vehicle: saline + alcohol 94 % of control | endpoint: mean survival time, dose: 200.0 mg/kg/injection, schedule: Q04DX003 (ip), vehicle: saline + alcohol 95 % of control | endpoint: mean survival time, dose: 400.0 mg/kg/injection, schedule: Q01DX009 (ip), vehicle: saline + alcohol 94 % of control | endpoint: mean survival time, dose: 400.0 mg/kg/injection, schedule: Q04DX003 (ip), vehicle: saline + alcohol 94 % of control

c1ccc2c(c1)C1c3ccccc3C2c2ccccc21
inactive: [5] 95 % of control | [7] 100 % of control | [8] 94 % of control

Oc1ccc(/C=N/NC(=S)Nc2cccnc2)nc1
inactive: [1] 87 % of control | [2] 87 % of control | [3] 91 % of control

c1ccc(C(=NN=C(c2ccccc2)c2ccccc2)c2ccccc2)cc1
inactive: [5] 97 % of control | [7] 97 % of control | [8] 95 % of control | endpoint: mean survival time, dose: 800.0 mg/kg/injection, schedule: Q04DX003 (ip), vehicle: saline with Tween-80 92 % of control

CC(=O)ON(C(C)=O)c1ccc(C(N)=O)cc1
inactive: endpoint: median survival time, dose: 25.0 mg/kg/injection, schedule: Q01DX009 (ip), vehicle: saline with Tween-80 103 % of control | endpoint: median survival time, dose: 50.0 mg/kg/injection, schedule: Q01DX009 (ip), vehicle: saline with Tween-80 100 % of control | endpoint: median survival time, dose: 100.0 mg/kg/injection, schedule: Q01DX009 (ip), vehicle: saline with Tween-80 101 % of control | endpoint: median survival time, dose: 200.0 mg/kg/injection, schedule: Q01DX009 (ip), vehicle: saline with Tween-80 103 % of control | endpoint: median survival time, dose: 400.0 mg/kg/injection, schedule: Q01DX009 (ip), vehicle: saline with Tween-80 108 % of control

O=CC(O)C(Cl)C(Cl)C(O)CCl (stereo unspecified)
inactive: [9] 115 % of control | [10] 100 % of control | [11] 98 % of control

O=C(Nc1ncccn1)Nc1cc([N+](=O)[O-])ccc1F
inactive: [12] 93 % of control | [13] 96 % of control | [14] 98 % of control

CCOc1ccc(CO)cc1
inactive: [4] 104 % of control | [6] 98 % of control | [15] 108 % of control

CC(C)=CC1CC(C)C2(CCC3(C)CC4C(C(=O)CC4(C)O)/C(C=O)=C\CC32)O1 (stereo unspecified)
inactive: endpoint: mean survival time, dose: 2.5 mg/kg/injection, schedule: Q01DX009 (ip), vehicle: saline with Tween-80 97 % of control | endpoint: mean survival time, dose: 5.0 mg/kg/injection, schedule: Q01DX009 (ip), vehicle: saline with Tween-80 94 % of control | endpoint: mean survival time, dose: 10.0 mg/kg/injection, schedule: Q01DX009 (ip), vehicle: saline with Tween-80 97 % of control

CN(CC(=O)C(C)(C)C)C1CCCCC1
inactive: [9] 91 % of control

Cc1cc(Br)c[nH]c1=O
inactive: endpoint: mean survival time, dose: 100.0 mg/kg/injection, schedule: Q01DX001 (ip), vehicle: saline with Tween-80 104 % of control | [4] 94 % of control | endpoint: mean survival time, dose: 200.0 mg/kg/injection, schedule: Q01DX001 (ip), vehicle: saline with Tween-80 108 % of control | [6] 100 % of control | endpoint: mean survival time, dose: 400.0 mg/kg/injection, schedule: Q01DX001 (ip), vehicle: saline with Tween-80 104 % of control

CCN(CC)CCOCCO
inactive: endpoint: mean survival time, dose: 100.0 mg/kg/injection, schedule: Q01DX009 (ip), vehicle: saline 102 % of control | endpoint: mean survival time, dose: 200.0 mg/kg/injection, schedule: Q01DX009 (ip), vehicle: saline 96 % of control

O=C1CC(c2ccccc2)C(c2ccccc2)N1Cc1ccccc1 (stereo unspecified)
inactive: endpoint: mean survival time, dose: 100.0 mg/kg/injection, schedule: Q04DX003 (ip), vehicle: other 93 % of control | endpoint: mean survival time, dose: 200.0 mg/kg/injection, schedule: Q04DX003 (ip), vehicle: other 93 % of control | endpoint: mean survival time, dose: 400.0 mg/kg/injection, schedule: Q04DX003 (ip), vehicle: other 97 % of control

COc1ccc(Cl)c2c1C1(CC(CC=O)C2)OCCO1 (stereo unspecified)
inactive: endpoint: mean survival time, dose: 75.0 mg/kg/injection, schedule: Q01DX001 (ip), vehicle: other 100 % of control | endpoint: mean survival time, dose: 150.0 mg/kg/injection, schedule: Q01DX001 (ip), vehicle: other 94 % of control | endpoint: mean survival time, dose: 300.0 mg/kg/injection, schedule: Q01DX001 (ip), vehicle: other 94 % of control

C[Si](C)(C)OSc1ccccc1[N+](=O)[O-]
inactive: endpoint: mean survival time, dose: 12.5 mg/kg/injection, schedule: Q01DX009 (ip), vehicle: Klucel (hydroxypropylcellulose) (HPC) 95 % of control | endpoint: mean survival time, dose: 25.0 mg/kg/injection, schedule: Q01DX009 (ip), vehicle: Klucel (hydroxypropylcellulose) (HPC) 97 % of control | [12] 100 % of control | [13] 93 % of control | [14] 92 % of control | endpoint: mean survival time, dose: 400.0 mg/kg/injection, schedule: Q01DX009 (ip), vehicle: Klucel (hydroxypropylcellulose) (HPC) 91 % of control

O=C(c1ccccc1)c1ccc(-c2ccccc2)c(=O)o1
inactive: [4] 95 % of control | [5] 100 % of control | [6] 95 % of control | [7] 98 % of control | [15] 92 % of control | [8] 102 % of control

c1ccc2c3c(ccc2c1)-c1oncc1CC3
inactive: [9] 98 % of control | [10] 91 % of control | [11] 102 % of control

O=C(CCN1CCCCC1)c1ccccc1
inactive: endpoint: mean survival time, dose: 5.0 mg/kg/injection, schedule: Q01DX009 (ip), vehicle: saline 115 % of control | endpoint: mean survival time, dose: 10.0 mg/kg/injection, schedule: Q01DX009 (ip), vehicle: saline 114 % of control | endpoint: mean survival time, dose: 20.0 mg/kg/injection, schedule: Q01DX009 (ip), vehicle: saline 102 % of control

O=C(c1ccccc1)c1ccc([N+](=O)[O-])cc1
inactive: endpoint: mean survival time, dose: 100.0 mg/kg/injection, schedule: Q04DX003 (ip), vehicle: saline sonified 92 % of control | endpoint: mean survival time, dose: 200.0 mg/kg/injection, schedule: Q04DX003 (ip), vehicle: saline sonified 95 % of control | endpoint: mean survival time, dose: 400.0 mg/kg/injection, schedule: Q04DX003 (ip), vehicle: saline sonified 100 % of control
